Here are results for eleven compounds from ChEMBL document CHEMBL1201862, “PubChem BioAssay data set” (2004).

Assay [1] in a line: A cytotoxicity screen of small molecule inhibitors of the PhoP region in Salmonella typhi identified in the primary screen. [Related pubchem assays: 1850, 1864, 1985 ]. It is filed as functional.
For assay [2], the target named is T1, X-box-binding protein 1 (Homo sapiens, UniProt P17861).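 Note: confirmatory dose-response counter-screen serving a CHOP assay.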
T1 sequence (P17861 whole entry): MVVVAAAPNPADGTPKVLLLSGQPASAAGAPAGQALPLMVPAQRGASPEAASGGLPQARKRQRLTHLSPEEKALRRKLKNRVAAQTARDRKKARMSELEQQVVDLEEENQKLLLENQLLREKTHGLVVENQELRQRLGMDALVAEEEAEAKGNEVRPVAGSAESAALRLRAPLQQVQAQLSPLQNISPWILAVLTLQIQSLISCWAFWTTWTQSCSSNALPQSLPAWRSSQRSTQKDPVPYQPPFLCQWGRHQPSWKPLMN
The format is functional, Cricetulus griseus.

Assay [3] deals with Streptococcus sp. 'group A'. As to the kind of experiment: growth inhibition of control SK(-) GAS strain, dose response, counter-screen for streptokinase expression inhibitor project, luminescence, kanamycin, BacTiterGlo, confirmation (AID 1900). It is filed as functional, organism-based.
Assay [4] has as its system Streptococcus. The assay is described as follows: Group A Streptococcus viability loss, dose response, counter-screen for streptokinase expression inhibitor project, luminescence, BacTiterGlo (AID 1915).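 Note: potency for reduction of bacterial viability or growth.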 The format is functional, organism-based.
Assay [5] deals with T2, Streptokinase A (Streptococcus pyogenes serotype M1, UniProt P10520).
T2 sequence (P10520 whole entry): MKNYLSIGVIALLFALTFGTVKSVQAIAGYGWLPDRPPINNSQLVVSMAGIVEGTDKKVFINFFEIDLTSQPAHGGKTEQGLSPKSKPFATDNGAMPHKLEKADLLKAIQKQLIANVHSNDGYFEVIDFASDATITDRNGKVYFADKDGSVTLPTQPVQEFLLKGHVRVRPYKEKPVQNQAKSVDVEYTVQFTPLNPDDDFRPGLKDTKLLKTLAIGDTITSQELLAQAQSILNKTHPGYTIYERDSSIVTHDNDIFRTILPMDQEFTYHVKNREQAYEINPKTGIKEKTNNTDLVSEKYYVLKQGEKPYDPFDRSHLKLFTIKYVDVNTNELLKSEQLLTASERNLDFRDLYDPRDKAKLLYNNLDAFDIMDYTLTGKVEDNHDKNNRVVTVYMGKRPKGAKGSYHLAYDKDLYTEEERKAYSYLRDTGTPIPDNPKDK
The assay is described as follows: S. pyogenes streptokinase expression inhibitors, potency, dose response, plasminogen activation absorbance, OD405 (AID 1914).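 Note: secreted streptokinase activity via plasminogen activation per viability signal from cell pellet.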 It is filed as functional, Streptococcus pyogenes M1 GAS.

Assay [6] is described as follows: cells.
Assay [7] is described as follows: HEp-2 cell cytotoxicity, dose response, cytotoxicity control for RSV inhibitor project, HTS (AID 2410). The settings on record: human respiratory syncytial virus. The format is functional.
For assay [8], the target named is G-protein coupled receptor 55 (Homo sapiens, UniProt Q9Y2T6). The assay is described as follows: GPR55 agonists via beta-arrestin recruitment, primary screen, imaging, U2OS cells, beta-arrestin-GFP redistribution (AID 1961). It is filed as functional.
Sequence of G-protein coupled receptor 55 (Q9Y2T6 whole entry): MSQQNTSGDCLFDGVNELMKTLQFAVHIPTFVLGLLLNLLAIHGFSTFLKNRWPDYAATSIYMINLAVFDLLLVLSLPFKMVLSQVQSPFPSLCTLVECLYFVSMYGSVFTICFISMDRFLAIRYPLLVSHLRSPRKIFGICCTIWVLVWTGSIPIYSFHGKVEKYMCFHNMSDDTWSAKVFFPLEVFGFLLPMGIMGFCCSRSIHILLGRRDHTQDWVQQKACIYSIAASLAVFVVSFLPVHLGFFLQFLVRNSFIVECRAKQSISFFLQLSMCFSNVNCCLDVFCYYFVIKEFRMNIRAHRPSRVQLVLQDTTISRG
Assay [9] addresses T3, Tyrosine-protein phosphatase non-receptor type 7 (Homo sapiens, UniProt P35236).
T3 sequence (P35236 whole entry): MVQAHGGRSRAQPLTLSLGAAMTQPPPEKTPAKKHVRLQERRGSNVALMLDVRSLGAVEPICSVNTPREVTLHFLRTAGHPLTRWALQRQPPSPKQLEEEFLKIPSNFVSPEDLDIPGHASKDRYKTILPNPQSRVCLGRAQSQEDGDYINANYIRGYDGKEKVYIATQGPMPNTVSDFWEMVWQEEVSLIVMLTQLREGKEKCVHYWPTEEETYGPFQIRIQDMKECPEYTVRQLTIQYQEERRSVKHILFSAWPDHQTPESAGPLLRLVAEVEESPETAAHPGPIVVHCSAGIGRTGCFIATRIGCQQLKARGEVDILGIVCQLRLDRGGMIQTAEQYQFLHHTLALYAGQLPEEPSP
The format is functional.

In assay [10] the target is T4, Dual specificity protein phosphatase 6 (Rattus norvegicus, UniProt Q64346).
T4 sequence (Q64346 whole entry): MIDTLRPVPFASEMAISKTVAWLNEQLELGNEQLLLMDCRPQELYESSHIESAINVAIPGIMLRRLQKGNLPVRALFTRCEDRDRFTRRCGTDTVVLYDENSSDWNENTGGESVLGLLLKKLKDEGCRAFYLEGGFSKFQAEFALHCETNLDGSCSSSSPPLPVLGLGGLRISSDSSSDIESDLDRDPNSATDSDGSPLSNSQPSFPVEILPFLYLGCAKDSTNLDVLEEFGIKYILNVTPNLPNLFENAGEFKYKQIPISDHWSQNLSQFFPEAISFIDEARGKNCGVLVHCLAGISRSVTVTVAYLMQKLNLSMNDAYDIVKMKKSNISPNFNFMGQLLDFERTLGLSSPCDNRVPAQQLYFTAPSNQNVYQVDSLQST

For assay [11], the target named is T4, Dual specificity protein phosphatase 6. It is filed as functional.
Assay [12] has as its target Glyceraldehyde-3-phosphate dehydrogenase (Homo sapiens, UniProt P04406).
The target of assay [13] is T5, NACHT, LRR and PYD domains-containing protein 1 (Homo sapiens, UniProt Q9C000).
T5 sequence (Q9C000 whole entry): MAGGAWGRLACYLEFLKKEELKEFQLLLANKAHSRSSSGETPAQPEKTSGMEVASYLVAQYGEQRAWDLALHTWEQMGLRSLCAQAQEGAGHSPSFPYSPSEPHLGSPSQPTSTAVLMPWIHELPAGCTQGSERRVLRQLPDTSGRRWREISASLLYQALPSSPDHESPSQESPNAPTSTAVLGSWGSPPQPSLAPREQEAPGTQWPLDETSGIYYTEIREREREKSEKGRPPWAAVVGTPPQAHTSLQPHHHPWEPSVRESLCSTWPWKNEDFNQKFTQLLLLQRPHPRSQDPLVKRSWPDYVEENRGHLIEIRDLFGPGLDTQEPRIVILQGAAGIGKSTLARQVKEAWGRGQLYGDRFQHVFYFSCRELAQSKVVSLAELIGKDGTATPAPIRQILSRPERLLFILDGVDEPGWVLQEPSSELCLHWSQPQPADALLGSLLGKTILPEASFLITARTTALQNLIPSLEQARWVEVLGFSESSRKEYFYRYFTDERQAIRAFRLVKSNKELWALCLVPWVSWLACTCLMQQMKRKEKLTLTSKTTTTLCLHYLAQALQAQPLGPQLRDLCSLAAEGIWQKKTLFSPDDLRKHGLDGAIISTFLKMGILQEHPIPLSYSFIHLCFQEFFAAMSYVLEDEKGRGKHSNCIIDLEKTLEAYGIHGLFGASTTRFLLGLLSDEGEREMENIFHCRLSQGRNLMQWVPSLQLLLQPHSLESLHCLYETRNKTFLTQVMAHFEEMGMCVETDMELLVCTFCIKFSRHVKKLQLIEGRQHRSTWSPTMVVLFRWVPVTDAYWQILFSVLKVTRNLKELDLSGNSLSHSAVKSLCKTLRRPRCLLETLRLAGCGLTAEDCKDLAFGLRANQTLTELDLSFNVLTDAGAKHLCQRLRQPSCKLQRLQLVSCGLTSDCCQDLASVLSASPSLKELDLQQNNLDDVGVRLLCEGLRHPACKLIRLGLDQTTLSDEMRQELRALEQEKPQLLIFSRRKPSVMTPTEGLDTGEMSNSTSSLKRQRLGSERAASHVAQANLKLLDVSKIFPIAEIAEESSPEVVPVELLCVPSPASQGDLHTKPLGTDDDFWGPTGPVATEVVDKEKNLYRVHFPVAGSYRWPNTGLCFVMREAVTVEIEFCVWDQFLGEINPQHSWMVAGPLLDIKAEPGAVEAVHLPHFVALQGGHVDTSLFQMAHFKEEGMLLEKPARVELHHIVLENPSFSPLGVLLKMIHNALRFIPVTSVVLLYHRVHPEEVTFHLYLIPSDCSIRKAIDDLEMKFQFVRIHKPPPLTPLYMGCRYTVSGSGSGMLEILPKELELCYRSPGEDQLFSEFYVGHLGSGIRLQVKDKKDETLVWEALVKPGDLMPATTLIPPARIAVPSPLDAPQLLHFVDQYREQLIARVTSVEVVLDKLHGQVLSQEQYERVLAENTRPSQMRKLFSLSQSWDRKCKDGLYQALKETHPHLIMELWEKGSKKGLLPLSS
As to the kind of experiment: NALP1 inhibitors in yeast, dose response, luminescent (AID 488860). It is filed as functional.

Assay [14] has as its system Saccharomyces cerevisiae. The assay is described as follows: NALP1 inhibitor project selectivity study, Caspase-1/ASC signal blockade IC50 in S. cerevisiae (AID 488863). The format is functional, organism-based.
Assay [15] addresses T6, Estrogen receptor (Homo sapiens, UniProt P03372).
T6 sequence (P03372 whole entry): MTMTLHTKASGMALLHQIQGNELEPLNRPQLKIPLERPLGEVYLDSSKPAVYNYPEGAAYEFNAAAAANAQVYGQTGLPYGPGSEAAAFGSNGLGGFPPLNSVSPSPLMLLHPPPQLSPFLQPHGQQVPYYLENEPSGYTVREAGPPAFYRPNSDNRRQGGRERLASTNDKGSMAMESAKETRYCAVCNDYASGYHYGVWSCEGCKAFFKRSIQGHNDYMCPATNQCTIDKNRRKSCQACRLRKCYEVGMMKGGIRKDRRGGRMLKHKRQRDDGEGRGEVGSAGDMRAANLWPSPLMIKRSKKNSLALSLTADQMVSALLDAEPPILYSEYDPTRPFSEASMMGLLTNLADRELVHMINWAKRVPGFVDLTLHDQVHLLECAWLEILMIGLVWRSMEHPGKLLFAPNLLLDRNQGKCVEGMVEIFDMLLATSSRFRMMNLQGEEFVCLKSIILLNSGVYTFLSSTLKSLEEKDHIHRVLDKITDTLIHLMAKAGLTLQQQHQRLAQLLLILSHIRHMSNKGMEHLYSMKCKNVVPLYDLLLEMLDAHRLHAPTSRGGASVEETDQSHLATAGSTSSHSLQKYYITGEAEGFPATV

Assay [16] in a line: inhibitors of intracellular T. cruzi replication, confirmation, NIH3T3 host cells, beta-gal luminescence (AID 2044).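 Note: intracellular parasites grown in NIH/3T3 mouse fibroblasts as host cells; luminescent beta-galactosidase reporter signal from transgenic T. cruzi replicating inside host cells; inhibitors lower the luminescence signal.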 It is filed as functional, cell-based.
Assay [17] can be described thus: cytotoxicity toward NIH3T3 fibroblasts, dose response, counter-screen, cell-based, ATP luminescence, mouse fibroblasts (AID 2010).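 Note: cells exposed to compound for about 90 hours before reading.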 The format is functional. In general terms: A counterscreen serves to expose hits that act by an unwanted route or on another target.

Active and inactive are the calls of the source. A value given as a limit tells only on which side of the number the result lay.

Sequence of Glyceraldehyde-3-phosphate dehydrogenase (P04406 whole entry, the tested form may be a part): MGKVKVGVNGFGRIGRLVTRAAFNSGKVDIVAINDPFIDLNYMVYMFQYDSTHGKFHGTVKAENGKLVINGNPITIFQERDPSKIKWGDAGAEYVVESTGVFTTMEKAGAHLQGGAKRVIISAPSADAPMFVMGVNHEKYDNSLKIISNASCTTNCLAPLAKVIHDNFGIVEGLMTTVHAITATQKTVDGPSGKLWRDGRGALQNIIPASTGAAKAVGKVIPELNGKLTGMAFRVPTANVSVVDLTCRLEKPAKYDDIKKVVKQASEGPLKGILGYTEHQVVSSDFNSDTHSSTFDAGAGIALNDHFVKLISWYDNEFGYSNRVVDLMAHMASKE

In general, EC50 refers to the concentration that produces a half-maximal response. As for `Cc1cc(N=Nc2ccccc2)c(NCC(O)C(O)C(O)CO)cc1C` (stereo not drawn), the EC50 in assay [1] is > 50 µM (active).

Regarding `C=CCn1c(COc2ccccc2)nnc1SC(C)C(=O)N/N=C/c1cc(Cl)ccc1O` (stereo not drawn), the “Absolute IC50 (XBP1)” value in assay [2] turned out to be 10 µM. The EC50 in [3] was 2.77 µM (active); in [4], 8.01 µM (active); in [5] it was > 150 µM (not active).

As usually defined, the IC50 is the midpoint of a concentration-inhibition curve. For orientation: CC50 means the concentration at which the toxic effect on the cells reaches its halfway point. Take `CC(=O)c1ccc2c(c1)C1C=CCC1C(c1ccc(S(=O)(=O)N3CCOCC3)cc1)N2` (stereo not drawn): in assay [6], the IC50 is 22.5 µM (active). Also, the CC50 in assay [7] was 17.2 µM (active).

For the compound `O=C(c1ccc2c(c1)N(Cc1ccccc1F)C(=O)c1ccccc1S2(=O)=O)N1CCCC1`, in [8], the EC50 is > 32 µM (inactive).

With `Cc1cc(NC(=O)/C=C/c2cccs2)no1`, the IC50 in assay [9] was > 100 µM (not active); in assay [10] it was > 100 µM (inactive); in assay [11] it was > 100 µM (inactive); in [12], 62.6 µM (active).

As for `CCOc1ccccc1N1CCN(C(=O)CCCc2nc3ccccc3s2)CC1`, the IC50 in [13] was 36.3 µM (active); in assay [14] it was > 100 µM (inactive).

With `COc1ccc(Cl)cc1NC(=O)c1oc(C)nc1C`, in assay [15], the IC50 is > 50 µM (not active).

As for `N#Cc1nc(-c2ccc(OCc3ccc(Cl)cc3)cc2)oc1NCc1cccnc1`, the concentration for half-maximal inhibition (IC50) in assay [15] is 37.4 µM (not active).

Turning to `C/C(N)=C(/C#N)C(=O)CSc1cc(C)c2cc(C)cc(C)c2n1`, the EC50 in [16] is 4.13 µM (active); in [17], > 60 µM (not active). Further, the IC50 in assay [6] is 12 µM (active).

Turning to `O=C(CSc1nnc(-c2cccnc2)n1Cc1ccco1)c1ccc2ccccc2c1`, the EC50 in assay [1] was > 50 µM (active).

With `Cc1ccc(/C=C2\SC(=S)N(c3cccnc3)C2=O)o1`, the concentration for a half-maximal effect (EC50) is 2.36 µM (active) in assay [16], > 50 µM (active) in [1] and > 60 µM (not active) in [17].
